Reference: patent publication US8211463B2, “Use of glycolipids as adjuvants” (Helmholtz-Zentrum Fuer Infektionsforschung GmbH, priority 2006, dated 2012)

Key:
[1] = system: β-Gal-specific systemic IgG; experiment: β-Gal-specific serum IgG ELISA after i.n. or s.c. immunisation with β-Gal plus glycolipid adjuvant; assay type: in vivo, Balb/c mice; details: day 38
Method: Co-administration of β-Gal with 10 μg glycolipids 1, 5 and 6 induced β-Gal-specific systemic IgG responses in Balb/c mice. Balb/c mice were immunized by the i.n. or s.c. route with β-Gal alone or together with glycolipids 1, 5 and 6 three times at 2-wk intervals. 10 days after the final immunization, the immunized mice were sacrified. The levels of β-Gal-specific systemic IgG were determined in Sera of mice immunized by the i.n. (A) and s.c. (B) route. […] The parenteral administration of with β-Gal co-administered with glycolipids 1, 5 and 6 doubled the β-Galactosidase-specific IgG titer (>500000) in comparison to animals which were immunized with β-Gal alone. Bars represent mean Ab titer or amount±SE in each group. […]
Balb/c mice were immunized by the i.n. or s.c. route with β-Gal alone or together with glycolipids 5 and 6 three times at 2-wk intervals. […] The levels of β-Gal-specific systemic IgG were determined in Sera of mice immunized by the i.n. (A) and s.c. (B) route. […]
Experimental protocol: six-eight weeks-old female BALB/c (H-2d) mice were purchased from Harlan Winkelmann GmbH (Borchen, Germany) and treated in accordance with local and European Community guidelines. […] Endpoint titers were expressed as the reciprocal log 2 of the last dilution, which gave an optical density at 405 nm of 0.1 units above the values of the negative controls after 15 to 30 min of incubation.

[2] = system: spleen cells of immunized mice; experiment: Splenocyte proliferation ([3H]thymidine incorporation) after in vitro restimulation with β-Gal; assay type: in vivo, Balb/c mice; details: i.n., 10 μg glycolipid, restimulation with β-Gal for 4 days
Method: (§1) Co-administration of β-Gal with 10 μg glycolipids 1, 5 and 6 induced a strong cellular immune responses against the β-Gal antigen in Balb/c mice. Balb/c mice were immunized by the i.n. or s.c. route with β-Gal alone or together with glycolipids 1, 5 and 6 three times at 2-wk intervals. 10 days after the final immunization, the immunized mice were sacrificed. Splenocytes of mice immunized by the i.n. (A) and s.c. (B) route were collected and cultured with different concentrations of the β-Gal-Protein for 4 days. […] Curves represent [^3H]thymidine incorporation (counts per minute, cpm) and Stimulation index (SI) in each group. Each group consists of five mice. Data are representative of three separate experiments.
as §1, with “with 20 up to 30” for “with 10”, “glycolipids” for “glycolipids 1,”, “represent [3H]thymidine incorpoaration” for “represent [^3H]thymidine incorporation”
Experimental protocol: Spleens were removed and pooled for analysis of cellular immune responses. Cells were grown in RPMI 1640 supplemented with 10% fetal calf serum, 100 U/ml of penicillin, 50 μg/ml of streptomycin, 5×10^−5 M 2-mercaptoethanol and 1 mM L-glutamine (GIBCO BRL, Karlsruhe, Germany) and maintained at 37° C. in a humidified 5% CO2 atmosphere. Spleen cell suspensions were adjusted to 5×10^6 cells/ml in complete medium, cells were seeded with 100 μl per well in a flat-bottomed 96-well microtiter plate (Nunc) and plates were incubated for 4 days. Unstimulated spleen cells were incubated in the presence of different concentrations of the new adjuvants to analyze the in vitro stimulation capacity of glycolipids 1, 5 or 6, respectively. T cellmediated immune responses were investigated at day 38 by measuring the proliferation of cells recovered from spleens after in vitro restimulation with β-Gal. Said spleen cells were obtained from vaccinated mice—said mice where immunized as described in Example 2—and incubated in the presence of different concentrations of the soluble β-Gal antigen. Each concentration was tested in triplicates. During the final 18 h of culture, 1 μCi of [^3H]thymidine (Amersham International, Freiburg, Germany) was added to each well. Cells were then harvested on paper filters (Filtermat A; Wallac, Freiburg, Germany) by using a cell harvester (Inotech, Wohlen, Switzerland), and the amount of incorporated [^3H]thymidine into the DNA of proliferating cells was determined by a β-scintillation counter (Wallac 1450, Micro-Trilux). The results are expressed as the arithmetic mean of [^3H]thymidine uptake in cpm.

Substance: β-Gal
- β-Galactosidase-specific IgG titer in serum ([1]; 10 μg glycolipid + 30 μg β-Gal, three immunisations): < 1/10000 and very low antibody titers
- β-Galactosidase-specific IgG titer in serum ([1]; 20 or 30 μg glycolipid + 30 μg β-Gal): < 1/10000
- Stimulation index (SI), [3H]thymidine incorporation of spleen cells [2]: no effect
